Measured values: the supplement of paper PMC10307832

Experiments:
Experiment in all cases: relative viability (nuclei count vs DMSO), 5 days (fraction); higher = more cells survive
[1] = compound: CCc1c2c(nc3ccc(OC(=O)N4CCC(N5CCCCC5)CC4)cc13)-c1cc3c(c(=O)n1C2)COC(=O)[C@]3(O)CC [Irinotecan] + CC(=O)Nc1cccc(-n2c(=O)n(C3CC3)c(=O)c3c(Nc4ccc(I)cc4F)n(C)c(=O)c(C)c32)c1 [Trametinib] (partner 0.02 µM)
Method in brief: (§1)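 Lung cancer cell lines were pin-tool dosed in 1536-well plates on the day after seeding, with either a lone drug or a fixed anchor-drug dose plus five library-drug doses (not always all listed) in √10 steps. Nuclei were counted on 4× images after 5 days. Relative viability is the ratio of treated-well to vehicle-well nuclei counts, with each value a median of duplicate plates.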

[2] = compound: Cn1cc(-c2cnc3ccc4ccc(CS(=O)(=O)NCc5ccccn5)cc4c(=O)c3c2)cn1 [MK-8033] + NC(=O)Nc1cc(-c2cccc(F)c2)sc1C(=O)N[C@H]1CCCNC1 [AZD7762] (partner 0.2 µM)
Method in brief: as §1

[3] = compound: Cn1cc(-c2cnc3ccc4ccc(CS(=O)(=O)NCc5ccccn5)cc4c(=O)c3c2)cn1 [MK-8033] + O=C(c1cc(Cc2n[nH]c(=O)c3ccccc23)ccc1F)N1CCN(C(=O)C2CC2)CC1 [Olaparib] (partner 8 µM)
Method in brief: as §1

[4] = compound: CC[C@@H](C)CNCC(=O)N1CCC2=C([C@@H]1COC3=CC=CC(=C3)C)C=CS2 [RU-SKI 43] + CC(=O)Nc1cccc(-n2c(=O)n(C3CC3)c(=O)c3c(Nc4ccc(I)cc4F)n(C)c(=O)c(C)c32)c1 [Trametinib] (partner 0.02 µM)
Method in brief: as §1

Cell Line | relative viability ([1]; first compound 0.6325 µM) | relative viability ([1]; first compound 2 µM) | relative viability ([1]; first compound 6.325 µM) | relative viability ([1]; first compound 20 µM) | relative viability ([2]; first compound 0.02 µM) | relative viability ([2]; first compound 0.2 µM) | relative viability ([2]; first compound 0.6325 µM) | relative viability ([2]; first compound 2 µM) | relative viability ([3]; first compound 0.02 µM) | relative viability ([3]; first compound 0.2 µM) | relative viability ([3]; first compound 0.6325 µM) | relative viability ([3]; first compound 2 µM) | relative viability ([4]; first compound 0.1 µM) | relative viability ([4]; first compound 0.3162 µM) | relative viability ([4]; first compound 1 µM) | relative viability ([4]; first compound 3.162 µM) | relative viability ([4]; first compound 10 µM) | relative viability ([2]; first compound 0.06325 µM) | relative viability ([3]; first compound 0.06325 µM)
HCC-827 | 0.512 | 0.383 | 0.202 | 0.203 | 0.259 | 0.196 | 0.207 | 0.238 | 0.653 | 0.644 | 0.561 | 0.488 | 0.501 | 0.52 | 0.545 | 0.574 | 0.46 | – | –
HOP-62 | 0.311 | 0.23 | 0.23 | 0.228 | 0.67 | 0.464 | 0.471 | 0.578 | 0.407 | 0.417 | 0.399 | 0.471 | 0.358 | 0.428 | 0.374 | 0.405 | 0.314 | 0.722 | 0.51
IA-LM | – | – | – | – | – | – | – | – | 0.749 | 0.786 | 0.756 | 0.767 | – | – | – | – | – | – | 0.764
LC-2-ad | 0.657 | 0.365 | 0.275 | 0.253 | 0.832 | 0.78 | 0.843 | 0.827 | 0.701 | 0.673 | 0.702 | 0.727 | 0.951 | 1.08 | 0.985 | 0.928 | 0.847 | 0.783 | 0.678
LCLC-97TM1 | 0.131 | 0.14 | 0.128 | 0.154 | 0.248 | 0.268 | 0.227 | 0.222 | 0.346 | – | 0.406 | 0.256 | 0.193 | 0.246 | 0.256 | 0.187 | 0.148 | 0.338 | 0.387
LCLC-103H | 0.655 | 0.603 | 0.463 | 0.479 | 0.756 | 0.788 | 0.741 | 0.82 | 0.731 | 0.737 | 0.729 | 0.815 | 0.689 | 0.755 | 0.726 | 0.677 | 0.724 | 0.712 | 0.778
LK-2 | 0.821 | 0.7 | 0.465 | 0.281 | 0.454 | 0.316 | 0.363 | 0.427 | 0.974 | 0.765 | 0.678 | 0.81 | 0.766 | 1.01 | 0.915 | 0.828 | 0.736 | 0.288 | 0.694
LOU-NH91 | 0.774 | 0.768 | 0.466 | 0.29 | 0.816 | 0.76 | 0.807 | 0.814 | 0.893 | 0.842 | 0.913 | 0.882 | 0.774 | 0.749 | 0.802 | 0.825 | 0.808 | 0.624 | 0.679
LU99A | 0.184 | 0.182 | 0.164 | 0.156 | 0.522 | 0.367 | 0.458 | 0.317 | 0.28 | 0.223 | 0.266 | 0.22 | 0.561 | 0.65 | 0.595 | 0.553 | 0.489 | 0.27 | 0.222
